# “And” between values parts separate entries of the source, which are not always exact repeats. Equal entries are not always repeated.
# What was measured:
# [1] = system: L18-MDP-stimulated TNFα release; assay: L18-MDP-stimulated TNFα release in rat whole blood; format: cell-based; details: inhibition of L18-MDP-stimulated TNFα release
# Protocol: (§1) Before treatment with compound or vehicle, THP1 cells, human and rat PBMCs were counted using Vi-Cell cell counter (Invitrogen) and adjusted to a final cell density of […] using complete growth medium. Cells or whole blood were treated with vehicle (0.1% DMSO) or fixed concentrations of compound up to 1 μM in half log unit increments and incubated for the time period indicated in the figure.
# Where the assessment of cytokines was performed, L18-MDP was added to the cell culture media (1 μg/ml) or to the rat blood samples (100 ng/ml) and samples were incubated for up to 4 h. […]
# Cytokine measurement assay: Cytokine levels were measured in rat plasma or rat PBMCs cell culture supernatants using rat V-Plex TNFα, in human plasma or human PBMCs cell culture supernatants with either TNFα tissue culture or 7-plex kit. Rat serum and tissues samples from the in vivo L18-MDP acute inflammation model were analyzed using the rat TNFα, Il-6 and IL-8 U-Plex kits. […] Levels of cytokines spontaneously released from human colon biopsies cell culture supernatants were measured using Human IL-1 beta/IL-1F2 DuoSet ELISA (Bio-techne), Human IL-6 ELISA (Immunotools) and Human TNF-alpha DuoSet ELISA (Bio-techne). […] The MSD plates were analyzed using the MSD sector imager 6000 plate reader and cytokines concentration (pg/ml) was obtained by using the MSD DISCOVERY WORKBENCH software version 4.0.12.1 […]
# RIPK2 = RIPK2 (Homo sapiens, UniProt O43353); assay: RIPK2 degradation in human PBMCs (immunoassay); format: cell-based; design: endogenous in cells; host or cells: primary human PBMCs from leukodepletion filters (NHSBT); details: 24 h
# Protocol: PBMCs were isolated from leukodepletion filter from platelet aphaeresis supplied by National Health System Blood and Transplant—NHSBT Apheresed at NHBST.
# as §1
# Where the assessment of cytokines was performed, L18-MDP was added to the cell culture media (1 μg/ml) or to the rat blood samples (100 ng/ml) and samples were incubated for up to 4 h. […] Samples were them spun down at 1000 g and the cell culture supernatant, plasma or serum were collected for cytokines assessment, while cell pellets were used for RIPK2 and/or cIAP1, cIAP2, and XIAP levels analysis via immunoblotting.
# Simple Western immunoassay: Cell lysates were mixed with 5× concentrated master mix (Protein Simple) and denatured at 95 °C on a heat block for 5 min together with the provided ladder (Protein Simple). Antibodies were diluted in the provided buffer as following: anti-RIPK2 (1:10 or 1:50), anti-cIAP1(1:10), anti-cIAP2 (1:10), anti-XIAP (1:10), mouse anti-β-actin (Abcam - 1:1000), rabbit anti-β-actin (Abcam - 1:50) and anti-vinculin (1:100). All reagents (blocking buffer, primary and secondary antibodies, streptavadin, luminol/peroxide, separation matrix, stacking matrix and water) were added to the Protein Simple plate containing the ladder and lysates and the plate was placed in a Protein Simple Western instrument and the Simple Western default size assay protocol was used. […] The area under the peak values obtained for RIPK2, cIAP1, cIAP2 or XIAP were normalized relative to the control protein values.
# In vitro experimental data were analyzed using a 4-parameter logistic equation in GraphPad Prism 5.0.4. to generate an estimate of the half-maximal concentration and maximal degradation, DC50 and Dmax value respectively, for concentration-degradation relationships. Cytokine levels were analyzed in a similar manner to yield IC50 and Imax values. […] Where analysis to a sigmoidal relationship was not possible, the data points are shown as mean ± s.e.m.
# [2] = ChromLogD7.4 high-throughput chromatographic lipophilicity; format: physicochemical
# Hepatocyte CLint, rat = format: in vitro ADME; details: rat liver hepatocytes
# Protocol: Metabolic stability was performed at Cyprotex (UK). Pooled liver microsomes / cryopreserved pooled hepatocytes were purchased from a commercial supplier (BD Biosciences or Corning/InVitro Technologies).
# The final incubation volume was 500 µL. An appropriate vehicle control was used. Each compound was incubated for 0, 5, 10, 20, 40, and 60 min. The control (vehicle) was incubated for 60 min.
# All incubations were terminated by transferring 50 μL of incubate to 100 μL of acetonitrile containing internal standard at the appropriate time points. The termination plates were centrifuged at 2500 rpm for 20–30min at 4 °C to precipitate the protein. Following protein precipitation, samples were analysed using quantitative LC-MS/MS.
# [3] = system: L18-MDP-induced cytokine release; assay: In vivo L18-MDP acute inflammation model, serum cytokines (TNFα, IL-6, IL-8); design: species or system rat; cytokine level (fig 6a) / cytokine level (fig 6b) / cytokine level (fig 6c): unit not given here; details: for cytokine level (fig 6a) / cytokine level (fig 6b) / cytokine level (fig 6c): serum, individual rats, beside L18-MDP control;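 as to cytokine level (fig 6a): time is length of PROTAC pretreatment before a 2 h L18-MDP challenge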;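 as to cytokine level (fig 6b): time is length of PROTAC pretreatment before a 2 h L18-MDP challenge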;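 as to cytokine level (fig 6c): time is length of PROTAC pretreatment before a 2 h L18-MDP challenge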
# Protocol: In vivo L18-MDP administration to rodents results in an acute inflammatory response characterised by the rapid production of inflammatory cytokines. […]. […]. Blood concentrations of 6 and 7 tracked closely and dropped below the LLQ after 24 h.
# . Cytokine levels were determined in serum generated from the terminal blood samples and in tissue lysates as detailed below.
# Cytokine measurement assay: Cytokine levels were measured in rat plasma or rat PBMCs cell culture supernatants using rat V-Plex TNFα, in human plasma or human PBMCs cell culture supernatants with either TNFα tissue culture or 7-plex kit. Rat serum and tissues samples from the in vivo L18-MDP acute inflammation model were analyzed using the rat TNFα, Il-6 and IL-8 U-Plex kits. All kits provided by Meso Scale Discovery (MSD). Levels of cytokines spontaneously released from human colon biopsies cell culture supernatants were measured using Human IL-1 beta/IL-1F2 DuoSet ELISA (Bio-techne), Human IL-6 ELISA (Immunotools) and Human TNF-alpha DuoSet ELISA (Bio-techne). All samples were processed accordingly to the manufacturer’s instructions. The MSD plates were analyzed using the MSD sector imager 6000 plate reader and cytokines concentration (pg/ml) was obtained by using the MSD DISCOVERY WORKBENCH software version 4.0.12.1
# For in vivo studies, RIPK2:tubulin ratios and cytokine levels from each individual experiment were analysed either using a One-way ANOVA with Dunnet’s post-test or a two way ANOVA using GraphPad Prism 5.0.4 to determine statistical significance with 95% confidence levels.
# Sequence of RIPK2 (O43353 whole entry): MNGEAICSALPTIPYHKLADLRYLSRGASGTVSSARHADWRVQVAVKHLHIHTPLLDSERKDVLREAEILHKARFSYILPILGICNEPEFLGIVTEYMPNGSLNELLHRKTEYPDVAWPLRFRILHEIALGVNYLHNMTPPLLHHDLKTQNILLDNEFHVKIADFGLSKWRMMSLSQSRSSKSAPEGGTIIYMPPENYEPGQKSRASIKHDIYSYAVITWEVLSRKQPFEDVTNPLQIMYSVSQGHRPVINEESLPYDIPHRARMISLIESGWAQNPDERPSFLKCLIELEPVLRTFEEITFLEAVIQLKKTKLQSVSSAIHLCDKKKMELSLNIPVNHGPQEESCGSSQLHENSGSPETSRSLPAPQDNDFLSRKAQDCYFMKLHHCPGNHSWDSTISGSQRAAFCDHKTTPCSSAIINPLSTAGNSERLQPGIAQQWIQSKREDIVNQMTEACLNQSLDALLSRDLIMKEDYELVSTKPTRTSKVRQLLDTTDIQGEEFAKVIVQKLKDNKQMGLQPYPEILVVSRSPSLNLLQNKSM
smiles,measurement,setting,value
CN[C@@H](C)C(=O)N[C@H](C(=O)N1CCC[C@H]1c1nc(C(=O)c2ccc(F)cc2)cs1)C1CCN(C(=O)c2cnc(N3CCN(CCOc4cc5ncnc(Nc6n[nH]c(C)c6C)c5cc4S(=O)(=O)C(C)(C)C)CC3)nc2)CC1 [PROTAC 4],rWB MDP pIC50 ± SEM (n),[1],7.7 ± 0.16 (4)
same,"hPBMC pDC50 ± SEM, 24 h (n = 3)",RIPK2; RIPK2 degradation,7.9 ± 0.2
same,"hPBMC Dmax ± SEM, 24 h (n = 3)",RIPK2; maximal RIPK2 degradation,69.2 ± 11.5%
same,ChromLogD7.4,[2],4.2
same,clearance in hepatocytes,"Hepatocyte CLint, rat",< 0.80 mL/min/g liver
CN[C@@H](C)C(=O)N[C@H](C(=O)N1C[C@@H](NC(=O)c2cnc(N3CCN(CCCOc4cc5ncnc(Nc6n[nH]c(C)c6C)c5cc4S(=O)(=O)C(C)(C)C)CC3)cn2)C[C@H]1C(=O)Nc1c(F)cccc1F)C(C)(C)C [PROTAC 6],inhibition of serum cytokines,"[3]; rat, 0.3 mg/kg SC, intravenous L18-MDP challenge, first three days",> 75%
same,cytokine level (fig 6a),[3]; time 6 h,18.49 (2×) and 16.66 and 19.87 and 20.63
same,cytokine level (fig 6b),[3]; time 6 h,1.67 and 2.89 and 2.19 and 1.98 and 1.58
same,cytokine level (fig 6c),[3]; time 6 h,4 (3×) and 5 and 3
same,cytokine level (fig 6a),[3]; time 24 h,17.80 and 19.20 and 17.38 and 15.28 and 17.94
same,cytokine level (fig 6b),[3]; time 24 h,3.64 and 5.77 and 5.56 and 2.08 and 8.31
same,cytokine level (fig 6c),[3]; time 24 h,1 (3×) and 2 (2×)
same,cytokine level (fig 6a),[3]; time 72 h,19.88 and 25.30 and 22.33 and 26.08 and 26.21
same,cytokine level (fig 6b),[3]; time 72 h,18.18 and 42.78 and 20.80 and 21.32 and 12.42
same,cytokine level (fig 6c),[3]; time 72 h,19 and 9 and 13 and 7 and 24
same,cytokine level (fig 6a),[3]; time 240 h,63.85 and 82.37 and 43.93 and 24.16 and 36.40
same,cytokine level (fig 6b),[3]; time 240 h,64.23 and 50.00 and 38.00 and 38.38 and 36.37
same,cytokine level (fig 6c),[3]; time 240 h,28 and 68 and 85 and 81 and 23
same,cytokine level (fig 6a),[3]; time 408 h,65.92 and 78.49 and 54.66 and 71.18 and 46.33
same,cytokine level (fig 6b),[3]; time 408 h,61.45 and 97.28 and 63.67 and 57.26 and 26.18
same,cytokine level (fig 6c),[3]; time 408 h,30 and 38 and 69 and 58 and 40
